# According to patent publication US11793797B2, “Uses of a lysyl oxidase-like 2 inhibitor” (PHARMAKEA, INC., priority 2016, dated 2023):
# Where two headings read alike, the source gives them in different places.
# Assays:
# [1] = Pharmacokinetic study of Compound 1 or 2 in rat; assay type: in vivo; conditions: male
# Procedure: (§1) Blood samples were taken from each rat (approximately 0.3 mL total blood per time point) at pre-dose, 5 or 15 min and then at various time points up to 24 hours post-dose. Samples were collected on wet ice in tubes containing potassium EDTA (w/v in normal saline; BD Biosciences, Franklin Lakes, N.J. Plasma samples, prepared by centrifugation of whole blood, were stored frozen (−80° C.) prior to analysis. All other reagents were of analytical grade.
# (§2) Analysis was performed on an LC-MS/MS systems comprised of a Sciex API-4000Qt tandem mass spectrometer (AB Sciex, Foster City, Calif.) interfaced to an HPLC system consisting of a single Agilent 1200 Series Quaternary system pump (Santa Clara, Calif.) and a LEAP PAL auto-injector (Greenville, S.C.). Analyses were performed using an Agilent Zorbax SB-C8 column (2.1×50 mm; 5 μm) for chromatographic separations at room temperature.
# [2] = in vivo; conditions: dog
# Procedure: as §1, with “dog” for “rat”, “1” for “0.3”
# as §2
# [3] = target: human LOXL2 (Homo sapiens (Human), UniProt Q9Y4K0); assay: Human LOXL2 CCM assay (Amplex Red amine oxidase activity); assay type: biochemical
# Sequence of human LOXL2 (Q9Y4K0 26-774): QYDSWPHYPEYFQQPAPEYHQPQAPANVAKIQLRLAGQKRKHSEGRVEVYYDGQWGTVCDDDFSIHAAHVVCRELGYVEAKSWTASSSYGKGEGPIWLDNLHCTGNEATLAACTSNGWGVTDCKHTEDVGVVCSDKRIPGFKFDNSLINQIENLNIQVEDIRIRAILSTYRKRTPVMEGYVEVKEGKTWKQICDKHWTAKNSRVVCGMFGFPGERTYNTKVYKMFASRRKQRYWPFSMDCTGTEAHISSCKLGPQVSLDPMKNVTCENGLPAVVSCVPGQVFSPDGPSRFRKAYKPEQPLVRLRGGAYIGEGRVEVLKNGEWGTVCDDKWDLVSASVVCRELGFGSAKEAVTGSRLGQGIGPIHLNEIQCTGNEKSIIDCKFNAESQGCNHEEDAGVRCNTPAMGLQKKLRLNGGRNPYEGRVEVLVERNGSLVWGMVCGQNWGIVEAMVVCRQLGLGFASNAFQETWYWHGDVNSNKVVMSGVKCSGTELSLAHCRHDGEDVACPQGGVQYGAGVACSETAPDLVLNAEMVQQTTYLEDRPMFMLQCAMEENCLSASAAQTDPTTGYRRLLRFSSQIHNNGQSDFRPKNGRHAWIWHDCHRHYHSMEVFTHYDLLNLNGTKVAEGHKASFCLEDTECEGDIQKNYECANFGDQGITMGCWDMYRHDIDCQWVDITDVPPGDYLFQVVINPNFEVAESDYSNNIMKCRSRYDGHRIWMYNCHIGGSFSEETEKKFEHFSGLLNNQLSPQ
# Procedure: Human LOXL2/CHO and human LOX/HEK stable cell lines were cultured under normal growth conditions in 15 cm tissue culture plates until cells were ˜80% confluent. Cells were then washed with PBS before the addition of 25-30 mL serum-free media (Phenol red-free DMEM/F12 mix w/glutamax containing pen/strep, 10-100 μM CuCl2±0.1% BSA). Cells were incubated at 37° C., 5% CO2 in serum-free media for 40-48 hours before the conditioned media was removed and centrifuged at 2000 rpm for 5 min at 4° C. to pellet cells/debris. The media was concentrated 10-20× using 10-30 MWCO centriprep columns according to the manufacturer's instructions (EMD Millipore, Billerica, Mass.) before aliquoting and storing at −80° C.
# LOXL2 amine oxidase activity was evaluated by measuring Amplex Red fluorescence using 10-20× concentrated conditioned media (non BSA-containing) from CHO cells stably expressing human LOXL2. To assay for amine oxidase activity, 10 μL of the concentrated conditioned media was incubated with 2 μL of test compound in DMSO and 73 μL Assay Buffer (50 mM Borate Buffer, pH8) for 2 h at 37° C. After the 2 h incubation, 5 μL of 10 mM 1,5-Diaminopentane (DAP) diluted in Assay Buffer and 10 μL of Amplex Red Mix (8.5 μL Assay Buffer+0.5 μL of 10 mM Amplex Red+1 μL of 500 U/ml Horseradish Peroxidase) were added and the plate mixed and immediately placed on the FlexStation for fluorescence measurements. Fluorescence was read in kinetic mode every 2 min for 0.5-1 hour at excitation=544 and emission=590. The amine oxidase activity was calculated from the slope of the linear portion of the curve. Wells containing vehicle (DMSO) represented maximum activity and were set to 0% inhibition and wells containing 100 μM βAPN (3-aminopropionitrile) represented no activity and were set to 100% inhibition.
# [4] = test system: liver fibrosis in BALB/c.Mdr2-/- mice; assay: Mouse Mdr2 knockout model of biliary fibrosis; assay type: in vivo; conditions: a model of liver fibrosis
# Procedure: Liver disease develops in the BALB/c.Mdr2−/− mouse model with bridging fibrosis/early cirrhosis between 8 and 12 weeks of age (Ikenaga et al. 2015 Am J Pathology, 185: 325-334). […] At the end of the study, mice were anesthetized with isoflurane (1.5% v/v) via precise vaporizer. After laparotomy, portal pressure was measured directly by inserting a high-fidelity pressure catheter into the portal vein and measuring pressure signals for 5 minutes. Serum was collected for analysis of liver (ALT, AST, ALP, and bilirubin) and kidney (creatinine) biochemistries. Part of the liver was fixed in 10% neutral buffered formalin for histopathological analysis of inflammation, necrosis and fibrosis by H&E staining and picrosirius red staining. Collagen area fraction was measured from picrosirius red stained images using an algorithm that separates the red stained collagen from non-specific staining through color subtraction and thresholding of the processed image. Sections were analyzed in random order using the same threshold value for each set. Data were deconvolved after analysis to identify group assignment. Collagen content was determined from a portion of the liver tissue using hydroxyproline analysis.
# [5] = test system: collagen induced arthritis (CIA); conditions: in vivo CIA mouse model; cited from earlier work
# [6] = test system: bleomycin-induced lung fibrosis; assay: Mouse oropharyngeal bleomycin model of lung fibrosis; assay type: in vivo
# Procedure: Lung fibrosis was induced in C57Bl/6 male mice by administering bleomycin (0.1-4 U/kg) via oropharyngeal instillation. Mice were either pretreated with vehicle or test compound orally, intraperitoneally, intravenously or subcutaneously either prophylactically (1 day to 1 hour before bleomycin instillation) or therapeutically (7-14 days post bleomycin instillation). The route and frequency of dosing were based on previously determined pharmacokinetic properties for the LOXL2 inhibitor in mouse. After bleomycin instillation, animals were monitored daily for weight loss and clinical signs for 14-28 days prior to sacrifice. Animals were euthanized at study termination and weighed. […] For histological examination, lung slices were stained with Masson's trichrome or picrosirius red to measure fibrillar collagen as an indicator of fibrosis and an Ashcroft score of lung fibrosis and inflammatory damage determined. […] After the acid hydrolysis, 25-100 μL of the supernatant is dried down, resuspended in 25 μL water and the hydroxyproline content determined by the addition of 0.5 mL Chloramine T solution (140 mg Chloramine T in 6.5 ml ddH2O+1 ml n-propanol+2.5 mL 1M sodium acetate) and incubation at room temperature for 20 min. […]
# Fibrotic status was assessed histologically on Day 21 using Ashcroft score as a primary measure of lung fibrosis. […]
# [7] = test system: MDA-MB-435-GFP cells; assay: Mouse orthotopic breast cancer model; assay type: in vivo; conditions: oral 60 mg/kg/day, at 4 weeks, nude mice
# Procedure: Tumor stocks were made by subcutaneously (s.c.) injecting MDA-MB-435-GFP cells at a concentration of 5×10^6 cells/100 μL into the flank of nude mice. When the s.c. tumors reach 50-100 mm^3, tumors were harvested and cut into 1 mm^3 fragments. Two tumor fragments were transplanted into the mammary fat pad of each mouse. […] Docetaxel was administered at 10 mg/kg intravenously once a week for 4 weeks as a positive control. Tumor size was calculated from a measurement of perpendicular minor dimension (W) and major dimension (L) using the formula (W2×L)×½ with W and L measured using a digital caliper. Mice were sacrificed after 4 weeks.
# [8] = PO, 0.5% MC, 30 mg/kg, fasted, AUC0-t PO/AUC0-t IV
# [9] = plasma, iv, 2 mg/kg, saline, fed
smiles,measurement,setting,value
"NCc1cc(Oc2cccc(C(=O)N3C[C@@H](O)[C@H](F)C3)c2)nc(C(F)(F)F)c1 [Compound 2, (R,R)-trans-(3-((4-(aminomethyl)-6-(trifluoromethyl)pyridin-2-yl)oxy)phenyl)(3-fluoro-4-hydroxypyrrolidin-1-yl)methanone]",AUC0-t hr/Dose,"[1]; PO, 0.5% MC, 30 mg/kg, fasted",0.07
same,AUC(0-t hr),"[1]; PO, 0.5% MC, 30 mg/kg, fasted",2000 ng·h/mL
same,Cmax,"[1]; PO, 0.5% MC, 30 mg/kg, fasted",2600 ng/mL
same,Tmax,"[1]; PO, 0.5% MC, 30 mg/kg, fasted",25.2 min
same,F(%),[1]; [8],95%
same,emesis (clinical observations),[2]; po,Emesis was prevalent in all dose groups
same,tolerability by dosing form (clinical observations),[2]; po,oral capsule and potentially the tablet were better tolerated
same,Cmax,"[2]; male, beagle, po, 300 mg/kg",143000 ng/mL
same,Tmax,"[2]; male, beagle, po, 300 mg/kg, Tmax",18 min
"NCc1cc(Oc2cccc(C(=O)N3C[C@@H](O)[C@H](F)C3)c2)nc(C(F)(F)F)c1 [Compound I, (R,R)-trans-(3-((4-(aminomethyl)-6-(trifluoromethyl)pyridin-2-yl)oxy)phenyl)(3-fluoro-4-hydroxypyrrolidin-1-yl)methanone]","potency relative to the (S,S)-isomer",[3]; in vitro assays,less than 2 fold
same,fibrosis as area fraction of Picrosirius red (collagen) positive staining,[4],significantly reduced fibrosis
"N#CCCN [BAPN, β-aminopropionitrile]",effect on collagen induced arthritis,[5],ameliorated collagen induced arthritis (CIA)
"NCc1cc(Oc2cccc(C(=O)N3C[C@H](O)[C@@H](F)C3)c2)nc(C(F)(F)F)c1 (single isomer, unassigned) [Compound Ent-1]",IC50,"[3]; human LOXL2 CCM (non BSA-containing), 2 h preincubation at 37° C., read-out: IC50",< 300 nM
"NCc1cc(Oc2cccc(C(=O)N3C[C@@H](O)[C@H](F)C3)c2)nc(C(F)(F)F)c1 [Compound 1, (R,R)-trans-(3-((4-(aminomethyl)-6-(trifluoromethyl)pyridin-2-yl)oxy)phenyl)(3-fluoro-4-hydroxypyrrolidin-1-yl)methanone]",AUC0-t hr/Dose,"[1]; IV, saline, 2 mg/kg, fed",0.07
same,AUC0-t hr/Dose,"[1]; PO, 0.5% MC, 30 mg/kg, fasted",0.05
same,F(%),[1]; [8],71%
same,AUC0-t hr/Dose,"[1]; PO, capsule, 15 mg/kg, fasted",0.05
same,Cmax,"[1]; plasma, iv, 2 mg/kg, IV, saline, 2 mg/kg, fed, read-out: Cmax",630 ng/mL
same,Tmax,"[1]; plasma, iv, 2 mg/kg, IV, saline, 2 mg/kg, fed, read-out: Tmax",4.98 min
same,AUC(0-t),[1]; [9],140 ng·h/mL
same,bioavailability,[1]; [9],100%
same,bioavailability,"[1]; plasma, oral, 15 mg/kg, capsule, fasted, AUC0-t PO/AUC0-t IV",69%
same,Cmax,"[1]; plasma, po, 15 mg/kg, PO, capsule, 15 mg/kg, fasted, read-out: Cmax",1200 ng/mL
same,Tmax,"[1]; plasma, po, 15 mg/kg, PO, capsule, 15 mg/kg, fasted, read-out: Tmax",36 min
same,AUC(0-t),"[1]; plasma, po, 15 mg/kg, capsule, fasted",740 ng·h/mL
same,AUC(0-t),"[1]; plasma, po, 30 mg/kg, 0.5% MC, fasted",1400 ng·h/mL
same,Cmax,"[1]; plasma, po, 30 mg/kg, PO, 0.5% MC, 30 mg/kg, fasted, read-out: Cmax",1700 ng/mL
same,Tmax,"[1]; plasma, po, 30 mg/kg, PO, 0.5% MC, 30 mg/kg, fasted, read-out: Tmax",15 min
same,emesis (clinical observations),[2]; po,Emesis was prevalent in all dose groups
same,AUC0-t hr/Dose,"[2]; po, 100 mg/kg",0.85
same,bioavailability,"[2]; male, beagle, 100 mg/kg, F(%)",283%
same,Tmax,"[2]; male, beagle, po, 100 mg/kg",78 min
same,AUC(0-t),"[2]; male, beagle, po, 100 mg/kg, AUC(0-t hr)",85000 ng·h/mL
same,Cmax,"[2]; male, beagle, po, 100 mg/kg",27000 ng/mL
same,IC50,"[3]; CCM containing BSA, read-out: IC50, LOXL2 (CCM containing BSA)",116 nM
same,"Ashcroft score, mean value after treatment","[6]; prophylactic, oral 60 mg/kg/day from Day -1, Day 14, reduced from mean 3.1",0.8
same,normalization of Ashcroft score,"[6]; recovery study, oral 60 mg/kg starting Day 14 after bleomycin, lungs harvested Day 28",73%
same,reduction in tumor volume,[7],35%
